Assay results reported in article PMC4956724, “Assessing the reliability of uptake and elimination kinetics modelling approaches for estimating bioconcentration factors in the freshwater invertebrate, Gammarus pulex” (The Science of the Total Environment, 2016).
Where two headings read alike, the source gives them in different places.

How the values were obtained:
[1] = system: G. pulex; conditions: cited from earlier work
[2] = system: G. pulex; conditions: in vivo
[3] = system: G. pulex exoskeleton; conditions: both, Gammarus pulex, in vivo, pH 8.2
[4] = system: Gammarus pulex; assay: Toxicokinetic exposure (48 h uptake, 48 h depuration) of radio-labelled pharmaceuticals, first-order one-compartment model (OECD 305); conditions: for BCF, Simultaneous BCF: kinetic BCF (k1/k2); for BCF, Simultaneous BCF / k2 (elimination rate constant), Simultaneous BCF / k1 (uptake rate constant), Simultaneous BCF: simultaneous method; for BCF, Sequential BCF a / BCF, Sequential BCF b: kinetic BCF; for BCF, Sequential BCF a / k1, Sequential BCF a / k2, Sequential BCF a: sequential using curve fitting method; for BCF, Sequential BCF b / k1, Sequential BCF b / k2, Sequential BCF b: sequential using linear regression; for k2 (elimination rate constant), Simultaneous BCF / k1 (uptake rate constant), Simultaneous BCF: 1 μg·L^− 1 (diclofenac, ibuprofen 10 μg·L^− 1), 15 °C, pH 8.2
[5] = system: G. pulex; assay: Re-examination of raw toxicokinetic data from Ashauer et al. (2010) using the OECD 305 modelling approach; conditions: 2010 re-modelled
[6] = Control wells without G. pulex: loss of compound by sorption to the walls of culture plates; type: physicochemical; conditions: control wells with exposure media only
[7] = system: G. pulex; design: method as in Meredith-Williams et al., 2012; conditions: ref Meredith-Williams et al., 2012; cited from earlier work

| Structure (SMILES) | BAF ([1]; in vivo) | BCF, Sequential BCF ([2]; Gammarus pulex) | BCF, Simultaneous BCF ([2]; Gammarus pulex) | k1, Sequential BCF ([2]; Gammarus pulex) | k1, Simultaneous BCF ([2]; Gammarus pulex) | k2, Sequential BCF ([2]; Gammarus pulex) | k2, Simultaneous BCF ([2]; Gammarus pulex) | further results |
| --- | --- | --- | --- | --- | --- | --- | --- | --- |
| Clc1cccc(Cl)c1Cl [1,2,3-Trichlorobenzene] | 191 | 351 L kg^− 1 | 107 L kg^− 1 | 167 L kg^− 1 day^− 1 | 1142 L kg^− 1 day^− 1 | 0.475 day^− 1 | 10.648 day^− 1 | – |
| Oc1cc(Cl)c(Cl)cc1Cl [2,4,5-Trichlorophenol] | 2635 | 8327 L kg^− 1 | 3729 L kg^− 1 | 1091 L kg^− 1 day^− 1 | 941 L kg^− 1 day^− 1 | 0.131 day^− 1 | 0.252 day^− 1 | – |
| Nc1ccc(Cl)cc1Cl [2,4-Dichloroaniline] | 56 | 179 L kg^− 1 | 50 L kg^− 1 | 70 L kg^− 1 day^− 1 | 140 L kg^− 1 day^− 1 | 0.392 day^− 1 | 2.830 day^− 1 | – |
| Oc1ccc(Cl)cc1Cl [2,4-Dichlorophenol] | 4466 | 72,728 L kg^− 1 | 9050 L kg^− 1 | 750 L kg^− 1 day^− 1 | 600 L kg^− 1 day^− 1 | 0.010 day^− 1 | 0.066 day^− 1 | – |
| O=[N+]([O-])c1ccc(CCl)cc1 [4-Nitrobenzyl chloride] | 185 | 214 L kg^− 1 | 147 L kg^− 1 | 259 L kg^− 1 day^− 1 | 666 L kg^− 1 day^− 1 | 1.212 day^− 1 | 4.540 day^− 1 | – |
| CNC(=O)O/N=C/C(C)(C)SC [Aldicarb] | 2 | 3 L kg^− 1 | 2 L kg^− 1 | 3 L kg^− 1 day^− 1 | 16 L kg^− 1 day^− 1 | 0.936 day^− 1 | 10.419 day^− 1 | – |
| CNC(=O)Oc1cccc2c1OC(C)(C)C2 [Carbofuran] | 65 | 72 L kg^− 1 | 68 L kg^− 1 | 10 L kg^− 1 day^− 1 | 10 L kg^− 1 day^− 1 | 0.140 day^− 1 | 0.146 day^− 1 | – |
| CCOP(=S)(OCC)Oc1cc(C)nc(C(C)C)n1 [Diazinon] | 82 | 101 L kg^− 1 | 77 L kg^− 1 | 161 L kg^− 1 day^− 1 | 276 L kg^− 1 day^− 1 | 1.590 day^− 1 | 3.569 day^− 1 | – |
| O=C(O)Cc1ccccc1Nc1c(Cl)cccc1Cl [Diclofenac, diclofenac] | – | – | – | – | – | – | – | Maximum concentration sorbed to exoskeleton [3]: 18%; Mean Compound Mass per Animal [3]: 2070 pg; Total Mass Compound on exoskeleton [3]: 368 (n=4) pg; BCF, Simultaneous BCF [4]: 14 L kg^− 1; BCF, Sequential BCF a [4]: 27 L kg^− 1; BCF, Sequential BCF b [4]: 21 L kg^− 1; k1, Sequential BCF a [4]: 0.253 L kg^− 1 day^− 1; k2, Sequential BCF a [4]: 0.009 day^− 1; k1, Sequential BCF b [4]: 0.269 L kg^− 1 day^− 1; k2, Sequential BCF b [4]: 0.013 day^− 1; k2 (elimination rate constant), Simultaneous BCF [4]: 0.020 day^− 1 |
| C=CC(=O)OCC [Ethylacrylate] | – | – | – | – | – | – | – | BAF ([1]; ref Ashauer et al. (2010)): 87; BCF, Sequential BCF ([5]; sequential method): 331 L kg^− 1; k1, Sequential BCF ([5]; sequential method): 67 L kg^− 1 day^− 1; k2, Sequential BCF ([5]; sequential method): 0.204 day^− 1; BCF, Simultaneous BCF ([5]; simultaneous method): 69 L kg^− 1; k1, Simultaneous BCF ([5]; simultaneous method): 110 L kg^− 1 day^− 1; k2, Simultaneous BCF ([5]; simultaneous method): 1.594 day^− 1 |
| COc1ccc(CC(C)NCC(O)c2ccc(O)c(NC=O)c2)cc1 (centres unmarked) [Formoterol, formoterol] | – | – | – | – | – | – | – | BCF, Simultaneous BCF [4]: 14 L kg^− 1; BCF, Sequential BCF a [4]: 18 L kg^− 1; BCF, Sequential BCF b [4]: 33 L kg^− 1; k1, Sequential BCF a [4]: 0.451 L kg^− 1 day^− 1; k2, Sequential BCF a [4]: 0.025 day^− 1; k1, Sequential BCF b [4]: 0.357 L kg^− 1 day^− 1; k2, Sequential BCF b [4]: 0.011 day^− 1; k1 (uptake rate constant), Simultaneous BCF [4]: 0.408 L kg^− 1 day^− 1; k2 (elimination rate constant), Simultaneous BCF [4]: 0.029 day^− 1 |
| Clc1c(Cl)c(Cl)c(Cl)c(Cl)c1Cl [Hexachlorobenzene] | – | 4160 L kg^− 1 | 2505 L kg^− 1 | 631 L kg^− 1 day^− 1 | 553 L kg^− 1 day^− 1 | 0.152 day^− 1 | 0.221 day^− 1 | – |
| O=[N+]([O-])NC1=NCCN1Cc1ccc(Cl)nc1 [Imidacloprid] | 7 | 13 L kg^− 1 | 7 L kg^− 1 | 2 L kg^− 1 day^− 1 | 2 L kg^− 1 day^− 1 | 0.175 day^− 1 | 0.265 day^− 1 | – |
| CN(C)CCCN1c2ccccc2CCc2ccccc21 [Imipramine, imipramine] | – | – | – | – | – | – | – | Maximum concentration sorbed to exoskeleton [3]: 3%; Mean Compound Mass per Animal [3]: 1921 pg; Total Mass Compound on exoskeleton [3]: 50 (n=2) pg; increase in BCF, sequential versus simultaneous method ([4]; in vivo): > 10 fold; BCF, Simultaneous BCF [4]: 212 L kg^− 1; BCF, Sequential BCF a [4]: 3811 L kg^− 1; BCF, Sequential BCF b [4]: 4533 L kg^− 1; BCF on average between curve fitting and linear regression approaches ([4]; sequential method): ~ 4200; k1, Sequential BCF a [4]: 1.361 L kg^− 1 day^− 1; k1, Sequential BCF b [4]: 1.360 L kg^− 1 day^− 1; k1 (uptake rate constant), Simultaneous BCF [4]: 1.408 L kg^− 1 day^− 1; k2 (elimination rate constant), Simultaneous BCF [4]: 0.007 day^− 1; loss by sorption to walls of exposure well ([6]; within 2 h): 27%; loss by sorption to walls of exposure well ([6]; within 48 h): 39% |
| CCOC(=O)CC(SP(=S)(OC)OC)C(=O)OCC (centres unmarked) [Malathion] | 114 | 212 L kg^− 1 | 120 L kg^− 1 | 80 L kg^− 1 day^− 1 | 86 L kg^− 1 day^− 1 | 0.378 day^− 1 | 0.721 day^− 1 | – |
| COCCc1ccc(OCC(O)CNC(C)C)cc1 (centres unmarked) [Metoprolol, metoprolol] | – | – | – | – | – | – | – | Mean Compound Mass per Animal [3]: 74 pg; Total Mass Compound on exoskeleton [3]: 14 (n=2) pg |
| CC(C)NCC(O)COc1cccc2ccccc12 (centres unmarked) [Propranolol, propranolol] | – | – | – | – | – | – | – | Mean Compound Mass per Animal [3]: 336 pg; Total Mass Compound on exoskeleton [3]: 44 (n=1) pg |
| CNC(=C[N+](=O)[O-])NCCSCc1ccc(CN(C)C)o1 [Ranitidine, ranitidine] | – | – | – | – | – | – | – | Mean Compound Mass per Animal [3]: 238 pg; Total Mass Compound on exoskeleton [3]: 58 (n=1) pg |
| CCCCCCCCn1sc(Cl)c(Cl)c1=O [Sea nine] | 1732 | – | – | – | – | – | – | BCF, Sequential BCF [2]: 7696 L kg^− 1; BCF, Simultaneous BCF [2]: 2491 L kg^− 1; k1, Sequential BCF [2]: 950 L kg^− 1 day^− 1; k1, Simultaneous BCF [2]: 755 L kg^− 1 day^− 1; k2, Sequential BCF [2]: 0.123 day^− 1; k2, Simultaneous BCF [2]: 0.303 day^− 1 |
| CC(C)(C)NCC(O)c1cc(O)cc(O)c1 (centres unmarked) [Terbutaline, terbutaline] | – | – | – | – | – | – | – | BCF, Simultaneous BCF [4]: 12 L kg^− 1; BCF, Sequential BCF a [4]: 22 L kg^− 1; BCF, Sequential BCF b [4]: 19 L kg^− 1; k1, Sequential BCF a [4]: 0.135 L kg^− 1 day^− 1; k2, Sequential BCF a [4]: 0.006 day^− 1; k1, Sequential BCF b [4]: 0.117 L kg^− 1 day^− 1; k2, Sequential BCF b [4]: 0.006 day^− 1; k1 (uptake rate constant), Simultaneous BCF [4]: 0.136 L kg^− 1 day^− 1; k2 (elimination rate constant), Simultaneous BCF [4]: 0.011 day^− 1 |
| CNCCC(Oc1ccc(C(F)(F)F)cc1)c1ccccc1 (centres unmarked) [fluoxetine] | – | – | – | – | – | – | – | BCF [7]: 185,900 |
